According to patent US9090582B2, “Highly pure pentamycin” (Biolotus Biotechnology AG, priority 2008, dated 2015):

Format: physicochemical
Description: The stability of more than 95% pure polymorph A on exposure to air and heat is compared to the stability of amorphous pentamycin (containing more than 95% pure pentamycin) as follows:
Amorphous pentamycin is prepared by precipitation from a solution of more than 95% pure pentamycin in dimethylsulfoxide by adding acetonitrile, followed by filtering and drying the precipitate.
More than 95% pure polymorph A of pentamycin is prepared by crystallization from a solution of more than 95% pure pentamycin in dimethylsulfoxide by adding ethyl acetate, followed by filtering and drying the precipitate.
A sample of the thus obtained amorphous pentamycin and a sample of the thus obtained polymorph A are incubated in an open vessel about six days at 60° C. and additionally 2 weeks at 40° C. The process of degradation is monitored by HPLC, measuring the decrease of the purity relative to the inital state at zero time (t0) set on 100%. After the incubation the amount of degradation of amorphous pentamycin is 11% whereas the amount of degradation of polymorph A is only 1%.

Structure (SMILES)	amount of degradation (decrease of the purity relative to the initial state at zero time t0 set on 100%)
CCCCC[C@@H](O)[C@H]1C(=O)O[C@H](C)[C@@H](O)/C=C/C=C/C=C/C=C/C=C(\C)[C@@H](O)[C@H](O)[C@H](O)C[C@H](O)C[C@H](O)C[C@H](O)C[C@H](O)C[C@@H]1O [amorphous pentamycin, pentamycin]	11%
CCCCC[C@@H](O)[C@H]1C(=O)O[C@H](C)[C@@H](O)/C=C/C=C/C=C/C=C/C=C(\C)[C@@H](O)[C@H](O)[C@H](O)C[C@H](O)C[C@H](O)C[C@H](O)C[C@H](O)C[C@@H]1O [polymorph A, pentamycin]	1%
